Source: US10072035B2, “Phenanthroline phosphonic acid derivative and preparation method therefor and application thereof” (Guangzhou Beryl Therapeutics, Inc, priority 2014, dated 2018)

Tests used:
human P4H enzyme = target: T1, human P4H enzyme (Homo sapiens, UniProt P13674); assay: P4H enzymatic activity, coupled succinyl CoA synthase / MLG phosphate assay; assay type: biochemical; conditions: 50 nM P4H, 100 uM 2-oxoglutarate, 45 min at 25° C., n=2, FIG. 1
T1 construct: made in house; host or cells: E. coli Origami2(DE3)
From the text: Human recombinant P4H was expressed in E. coli. Briefly, DNA encoding the signal sequence of P4H was cloned into pET28_N-His_TEV, the resulting plasmid pET28_N-His_TEV_P4HA1/PDI was transferred to E. coli Origami2(DE3) to co-expressed. The enzyme obtained was purified with MonoQ ion-exchange column, TEV digested and confirmed by MS, passed through Histrap HP column, finally purified with Hiload16/60 superdex 200 column.
The measurement of the enzymatic activity of purified P4H zymoprotein and the assay of the influence of the compound to the enzymatic activity were performed at the following coupling enzymatic reaction system: 100 mM Tris (pH7.0), 0.1 mM (NH4)2Fe(SO4)2, 0.1 mM ascorbic acid, 0.2 mM CoA, 0.2 mM ATP, 0.5 uM succinyl CoA synthase, 100 uM 2-oxoglutarate, 100 uM (Pro-Pro-Gly)10peptide, 50 nM P4H enzyme, 50 ul total. After 45 min reaction at 25° C., 10 ul MLG R1 was added and reacted for 10 min, 10 ul MLG R2 was added and reacted for 20 min. P4H catalyst 2-oxoglutaric acid and polypeptide with coenzyme and suitable enzyme reaction environment to give product succinic acid. The product succinic acid then produced succinyl CoA and phosphoric acid with the action of succinyl CoA synthase. The level of generated phosphoric acid could be measured by MLG, which reflects the level of P4H. The generated green product (MG+)(H2PMo12O40) was measured at OD 630 nm. […]

[1] = Concentration of compound 16c and 9c in liver after PO dosing of compound 27; assay type: in vivo, Wistar rats; conditions: rat; for concentration at 0.25 h / concentration at 0.75 h / concentration at 8 h / concentration at 24 h: both sexes, Wistar, liver; for concentration at 0.25 h: 0.25 h after oral administration of compound 27 (39 mg/kg); for concentration at 0.75 h: 0.75 h after oral administration of compound 27 (39 mg/kg); for concentration at 8 h: 8 h after oral administration of compound 27 (39 mg/kg); for concentration at 24 h: 24 h after oral administration of compound 27 (39 mg/kg); for Conversion of prodrug in vivo: after PO dosing of compound 27
Method: 16 Wistar rats (200±20 g) were divided into 4 groups randomly, female and male each half in each group, ate and drank freely before the experiment. After PO dosing of compound 27 (39 mg·kg^−1), rats were sacrificed at each time point 15 min, 45 min, 8 h, 24 h. Liver samples were collected, washed off blood and contents with saline, cut into small pieces, and stirred evenly. 1 g was weighed. 1 mL Methanol/water was added. After homogenated, additional 1 mL methanol/water was added. The mixture was sonicated for 15 seconds, centrifuged (4500 rpm) for 10 minutes. The upper clear solution was tested using LC-MS/MS method to give the concentration of compound 16c and 9c in liver at different time points after administration (table 2).

[2] = In-vivo pharmacokinetics in plasma of rats; set-up: species or system Wistar rats
Method: Wistar rats (200±20 g) were divided into 2 groups, 6 each, half female and half male in each group, ate and drank freely. The first group was given compound 16c 3 mg·kg^−1 caudal-intravenously. The second group was orally administered disodium salt of compound 27 (39 mg·kg^−1). Blood (0.3 mL) was collected from retroorbital vein at time point 0 h, 0.08 h, 0.17 h, 0.33 h, 0.5 h, 0.75 h, 1 h, 1.5 h, 2 h, 3 h, 5 h, 7 h, placed into cold heparinized Eppendorf tubes. The samples were centrifuged at 4° C. (15000 rpm) for 5 min. Transfer 100 μL plasma sample to −80° C. freezer for test.
Quantitative LC-MS/MS analysis methods of compound 9c and prodrug 16c in plasma were set up, using diazepam and mildronate as internal standard, respectively. (Prodrug 27 was not detected under experimental condition from plasma) the plasma sample was tested and analyzed. (result see in Table 1 and FIG. 2)
Oral Bioavailability was calculated according to compound 16c in plasma. Area under concentration-time curve (AUC) of PO dosing was divided by AUC of iv dosing of same amount of drugs, expressed as absorption percentage: Bioavailability (F)=AUCpo·Miv/AUCiv·Mpo×100%. Wherein, Miv means the molar concentration of drugs by iv dosing, and Mpo means the molar concentration of drugs by PO dosing. The AUC0-t of compound 16c in plasma

[3] = test system: BDL rats having liver fibrosis; assay: Bile Duct Ligation induced liver fibrosis model in rats; assay type: in vivo, Wistar rats
From the text: This experiment used Bile Duct Ligation to induce liver fibrosis model in rats. Treatment of BDL rats with PO dosing prodrug 27 was studied.
Briefly, Wistar rats (200±20 g) were divided into 3 groups, half female and half male in each group:
SHAM group: 6 rats were anaesthetized, the abdominal skin was shaved and sterilized regularly, the common bile duct was exposed by an upper abdominal midline incision with sterile operation. Muscle and skins were sutured separately.
liver fibrosis MODEL group: 12 rats were anaesthetized, the abdominal skin was shaved and sterilized regularly, the common bile duct was exposed and ligated by an upper abdominal midline incision with sterile operation. Muscle and skins were sutured separately.
Dosing group: 12 rats were anaesthetized, the abdominal skin was shaved and sterilized regularly, the common bile duct was exposed and ligated by an upper abdominal midline incision with sterile operation. Muscle and skins were sutured separately. After operation, disodium salt of compound 27 (30 mg/kg) was dissolved in water and dosed orally to the rats once per day test indexes:
After 2 weeks, measure the ALT and AST of serium and liver homogenate
After 2 weeks, rats were sacrificed, and liver performed HE staining and Masson staining.

myocardial infarction = conditions: in vivo; cited from earlier work
hepatic stellate cells = conditions: cited from earlier work
[4] = cited from earlier work
[5] = both sexes, rat, compound 16c in plasma after compound 16c IV 3 mg/kg, Wistar rats

T1 sequence (P13674 18-534): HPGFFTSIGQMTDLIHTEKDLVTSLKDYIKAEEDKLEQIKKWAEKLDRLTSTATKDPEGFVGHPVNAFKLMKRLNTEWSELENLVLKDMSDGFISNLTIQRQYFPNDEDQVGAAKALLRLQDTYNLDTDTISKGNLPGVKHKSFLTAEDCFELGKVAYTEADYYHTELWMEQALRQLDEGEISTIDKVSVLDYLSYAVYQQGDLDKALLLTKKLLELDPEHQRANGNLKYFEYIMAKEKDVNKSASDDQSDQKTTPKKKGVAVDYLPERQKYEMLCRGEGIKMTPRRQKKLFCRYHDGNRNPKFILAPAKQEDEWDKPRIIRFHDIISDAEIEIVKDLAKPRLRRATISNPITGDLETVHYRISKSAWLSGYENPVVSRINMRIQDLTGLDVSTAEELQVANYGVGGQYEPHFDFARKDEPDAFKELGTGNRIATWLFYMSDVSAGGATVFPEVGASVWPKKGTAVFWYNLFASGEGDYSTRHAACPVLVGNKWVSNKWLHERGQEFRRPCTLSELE
T1 sequence (P07237 18-508 partner): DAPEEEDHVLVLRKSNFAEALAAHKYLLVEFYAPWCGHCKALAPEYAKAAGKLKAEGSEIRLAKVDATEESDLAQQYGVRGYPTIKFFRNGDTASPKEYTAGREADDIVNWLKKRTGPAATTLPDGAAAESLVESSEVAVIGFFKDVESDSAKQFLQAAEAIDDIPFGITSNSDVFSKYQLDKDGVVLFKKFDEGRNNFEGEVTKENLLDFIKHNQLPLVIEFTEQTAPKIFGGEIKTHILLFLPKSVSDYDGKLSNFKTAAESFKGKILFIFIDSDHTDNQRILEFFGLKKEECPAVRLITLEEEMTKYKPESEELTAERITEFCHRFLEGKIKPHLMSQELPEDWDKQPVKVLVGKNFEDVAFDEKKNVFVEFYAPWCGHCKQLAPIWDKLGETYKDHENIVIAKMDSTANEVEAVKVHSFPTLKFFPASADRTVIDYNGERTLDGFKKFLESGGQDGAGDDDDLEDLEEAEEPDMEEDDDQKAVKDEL

Compound: O=P(O)(O)c1cnc2c(ccc3c(O)ccnc32)c1 [Compound 9c, 7-hydroxy-1,10-phenanthrolin-3-yl phosphonic acid]
- IC50 (human P4H enzyme): 8.1 µM
- concentration at 0.25 h [1]: 16.1 ng/g
- concentration at 0.75 h [1]: 64.2 ng/g
- concentration at 8 h [1]: 44.7 ng/g
- concentration at 24 h [1]: 3.55 ng/g

Compound: O=P1(c2cnc3c(ccc4c(O)ccnc43)c2)OCC[C@@H](c2cccc(Cl)c2)O1 (stereo partly drawn) [Compound 16c, (4S)-4-(3-chlorophenyl)-2-(7-hydroxy-1,10-phenanthrolin-3-yl)-1,3,2-dioxaphosphinan-2-one]
- AUC0-t of compound 16c in plasma ([2]; after compound 16c 3 mg/kg intravenously): 2.06 µg·h/mL
- AUC(0-inf) [2, 5]: 2.14 µg·h/mL
- AUC(0-t) [2, 5]: 2.06 µg·h/mL
- Cmax ([2]; both sexes, rat, compound 16c in plasma after compound 16c IV 3 mg/kg, Wistar rats, read-out: Cmax (peak concentration in plasma)): 1.62 µg/mL
- half-life ([2]; both sexes, rat, compound 16c in plasma after compound 16c IV 3 mg/kg, Wistar rats, read-out: t1/2 (half life of drug in plasma) (converted)): 1.5 h
- concentration at 0.25 h [1]: 522 ng/g
- concentration at 0.75 h [1]: 662 ng/g
- concentration at 8 h [1]: 584 ng/g
- concentration at 24 h [1]: 50.9 ng/g
- Conversion of prodrug in vivo [1]: converted to compound 9c in liver

Compound: O=c1ccn(COP(=O)(O)O)c2c1ccc1cc(P3(=O)OCC[C@@H](c4cccc(Cl)c4)O3)cnc12 (stereo partly drawn) [Compound 27, (3-(4S-4-(3-chlorophenyl)-1,3,2-dioxaphosphinan-2-one-2-yl)-1,10-phenanthrolin-7-one)-10(7H)-methyl phosphoric acid]
- ALT in serum ([3]; BDL rats, 30 mg/kg PO once per day, 2 weeks, MODEL 144.4 ± 15.94, SHAM 67.1 ± 5.45): 74.4 ± 17.82 IU/L
- AST in serum ([3]; BDL rats, 30 mg/kg PO once per day, 2 weeks, MODEL 207.2 ± 30.96, SHAM 67.7 ± 4.67): 87.2 ± 12.51 IU/L
- H&E staining of rat liver ([3]; BDL, PO 30 mpk, 2 weeks, FIG. 5): varies the pathological changes of hepatic tissue
- ALT and AST of the serium and liver homogenate versus model group ([3]; after 14 days of administration, P<0.01): decreased significantly
- ALT in liver ([3]; liver homogenate, BDL rats, 30 mg/kg PO once per day, 2 weeks, MODEL 136.8 ± 16.48): 76.4 ± 11.35 IU/L
- AST in liver ([3]; liver homogenate, BDL rats, 30 mg/kg PO once per day, 2 weeks, MODEL 198.75 ± 27.70): 91.42 ± 8.79 IU/L
- Detection of prodrug 27 in plasma ([2]; LC-MS/MS, after PO dosing 39 mg/kg): not detected
- Conversion of prodrug in vivo [1]: converted to compound 16c in rat

Compound: O=C(O)c1c[nH]c2c(ccc3cccnc32)c1=O [FG-041, 1,4-dihydrophenanthrol-4-one-3-carboxylic acid]
- myocardial infarction in animal experiment (myocardial infarction): prevent myocardial infarction

Compound: COCCNC(=O)c1ccnc(C(=O)NCCOC)c1 [HOE077]
- activation of hepatic stellate cells (hepatic stellate cells): inhibits
- expression of procollagen mRNA (hepatic stellate cells): inhibits
- hepatic stellate cells proliferation (hepatic stellate cells): reduces
- synthesis of total protein of cell (hepatic stellate cells): no effect
- side effects in clinical trials [4]: severe side effects (cataract)
